Measured values reported in patent US9625448B2, “Double caged GABA compounds, bis-CNB-GABA” (The Trustees of Princeton University, priority 2014, dated 2017).
Entries after “also recorded” stand apart in the source; their conditions may differ.

How the values were obtained:
[1] = Absorbance spectrum / extinction coefficient; assay type: physicochemical; conditions: for extinction coefficient: at 262 nm
Method: Following successful synthesis of bis-CNB-GABA, it was necessary to quantify extinction coefficient and quantum yield. […] Referring to FIG. 32, the first was accomplished simply by taking an absorbance spectrum of the compound. Extinction coefficient was then calculated from Beer's law.

[2] = test system: glutamate receptors; experiment: Spontaneous EPSCs / miniature AMPA currents recorded from cerebellar interneurons; assay type: cell-based
Method: Bis-CNB-GABA was applied in vitro. Currents were recorded from cerebellar interneurons. […] FIG. 35 (right) illustrates response traces before and after application of bis-CNB-GABA. FIG. 35 (left) illustrates summary of data. FIG. 36 illustrates effects of 1 mM bis-CNB-GABA on spontaneously evoked miniature glutamate and miniature GABA currents in cerebellar interneuron.
FIG. 37 illustrates effects of uncaging. […] Referring to FIG. 37 (bottom), the graph illustrates uncaging at 365 nm with LED in the presence of 3 mM gabazine.
As a third and final test of the synaptic effects of bis-CNB-GABA, we measured its impact on spontaneous glutamatergic postsynaptic currents (EPSCs) recorded from MLIs. Referring to FIGS. 43B and 43E, with this configuration, no change in the amplitude of the EPSCs was observed (FIG. 43B, bottom) even with concentrations of bis-CNB-GABA up to 2 mM (FIG. 43E, p=0.4, Spearman rank order correlation test).

[3] = Gee et al., 1994; cited from earlier work
[4] = cited from earlier work
[5] = test system: GABAA receptors; experiment: Monosynaptic IPSC, whole-cell patch clamp of dentate granule cells of rat hippocampal slices (Molnár & Nadler, 2000); assay type: cell-based
Method: FIGS. 25A-25B illustrate CNB-GABA depressed in a concentration-dependent manner the monosynaptic IPSC evoked by stimulation of the molecular layer as was observed by Molnár & Nadler, 2000. Referring to FIGS. 2A-25B, stimuli were delivered every 30 s. […] FIG. 25B illustrates cumulative concentration-response curve. Referring to FIG. 25B, the IC for CNB-GABA was essentially the same in the absence (28±9 mM, mean±S.D., n=5) and presence (32±13 mM, mean±S.D., n=4) of the GABAB receptor antagonist CGP 55845A. (Molnár & Nadler, 2000 European Journal of Pharmacology, 391, 255-262, which is incorporated herein by reference as if fully set forth).
FIG. 26 illustrates whole-cell patch clamp recordings from dentate granule cells of rat hippocampal slices reported by Molnár & Nadler, 2000. […] Holding potential of −80 mV. (Molnár & Nadler, 2000 European Journal of Pharmacology, 391, 255-262, which is incorporated herein by reference as if fully set forth, which is incorporated herein by reference as if fully set forth). […] FIG. 27 illustrates summary of the amplitudes of the current evoked by puff of 100 μM GABA and caged compounds around the soma reported by Matsuzaki et al., 2010. The amplitude was normalized to the mean current that was induced by GABA application alone. Left panel illustrates control (n=7); +10 mM CNI-GABA (n=7). […]

Compound: O=C(CCCNC(C(=O)O)c1ccccc1[N+](=O)[O-])OC(C(=O)O)c1ccccc1[N+](=O)[O-] (stereo not drawn) [bis-CNB-GABA, 2-((4-(Carboxy(2-nitrophenyl)methoxy)-4-oxobutyl)amino)-2-(2-nitrophenyl)acetic acid]
- wavelength of maximal absorbance [1]: 262 nm
- extinction coefficient ([1]; listed as Bis-CNB GABA): 7,550 M^−1 cm^−1
- extinction coefficient ([1]; listed as Bis-CNB-GABA): 7550 M⁻¹ cm⁻¹
- effect on spontaneously-evoked AMPA currents ([2]; 1 mM (FIG. 36), FIG. 39): no significant effect
- effect on amplitude of miniature AMPA currents ([2]; 1.223 mM): no significant effect
- effect on miniature AMPA currents ([2]; 1.233 mM and 1.0 mM): no significant effect
- effect on spontaneous EPSC size / amplitude ([2]; all concentrations tested, up to 2 mM): unaffected; also recorded: no change

Compound: NCCCC(=O)OC(C(=O)O)c1ccccc1[N+](=O)[O-] (stereo not drawn) [mono-CNB-GABA]
- solubility [3]: over 50 mM
- known quantum yield (QY) of standard ([4]; from Invitrogen): 0.16
- quantum yield ([4]; literature values): 0.14
- concentration required to generate 33% reduction in response [5]: 14 µM
- IC33 ([5]; Table 1, calculated, q=0.33, in mM): 0.014
